From patent publication US10471046B2, “Method for treating, preventing, or reducing the risk of skin infection” (Melinta Subsidiary Corp., priority 2014, dated 2019)
Converted amounts (≈) assume the structure as drawn.

What follows are compounds tested on S. aureus (assay: Minimum inhibitory concentrations (MICs) for S. aureus of exemplary compounds (Table 2)). Conditions: Staphylococcus aureus, minimum inhibitory concentrations for S. aureus; read-out: MICs.
Assay type: cell-based
Outline: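 MICs (μg/mL) against S. aureus come from microtiter-tray dilution susceptibility testing per NCCLS M7-A5, comparing growth with and without compound.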

`CC(=O)NC[C@H]1CN(c2ccc(-c3ccc(/C=N/Nc4ccccn4)cc3)c(F)c2)C(=O)O1` [Compound 2041, N-{3-[2-Fluoro-4′-(pyridin-2-yl-hydrazonomethyl)-biphenyl-4-yl]-2-oxo-oxazolidin-5-(S)-ylmethyl}-acetamide] and `CC(=O)NC[C@H]1CN(c2ccc(-c3ccc(CNCc4ccccn4)cc3)c(F)c2)C(=O)O1` [Compound 4024, N-[3-(2-Fluoro-4′-{[(pyridin-2-ylmethyl)-amino]-methyl}-biphenyl-4-yl)-2-oxo-oxazolidin-5-(S)-ylmethyl]-acetamide] are the same in MIC: 1 µg/mL (≈ 2.23 µM) for the first, 1 µg/mL (≈ 2.23 µM) for the second.

`CC(=O)NC[C@H]1CN(c2ccc(-c3ccc(CN4CCC4)cc3)c(F)c2)C(=O)O1` [Compound 1090, N-[3-(4′-Azetidin-1-ylmethyl-2-fluoro-biphenyl-4-yl)-2-oxo-oxazolidin-5-(S)-ylmethyl]-acetamide] and `CC(=O)NC[C@H]1CN(c2ccc(-c3ccc(CN4CC[C@@H](N)C4)cc3)c(F)c2)C(=O)O1` [Compound 1091, N-{3-[4′-(3-(R)-Amino-pyrrolidin-1-ylmethyl)-2-fluoro-biphenyl-4-yl]-2-oxo-oxazolidin-5-(S)-ylmethyl}-acetamide] are the same in MIC: 2 µg/mL (≈ 5.03 µM) for the first, 2 µg/mL (≈ 4.69 µM) for the second.

First: CC(=O)NC[C@H]1CN(c2ccc(-c3ccc(CN4CCCO4)cc3)c(F)c2)C(=O)O1 [Compound 1112, N-[3-(2-Fluoro-4′-isoxazolidin-2-ylmethyl-biphenyl-4-yl)-2-oxo-oxazolidin-5-(S)-ylmethyl]-acetamide]
Second: CC(=O)NC[C@H]1CN(c2ccc(-c3ccc(Cn4cccc4)cc3)c(F)c2)C(=O)O1 [Compound 1054, N-[3-(2-Fluoro-4′-pyrrol-1-ylmethyl-biphenyl-4-yl)-2-oxo-oxazolidin-5-(S)-ylmethyl]-acetamide]
The MIC of the first is 2-fold higher: 1 µg/mL (≈ 2.42 µM) for the first, 0.5 µg/mL (≈ 1.23 µM) for the second.

Compared with `CC(=O)NC[C@H]1CN(c2ccc(-c3ccc(CNCc4cccc(C#N)c4)cc3)c(F)c2)C(=O)O1` [Compound 4070, N-(3-{4′-[(3-Cyano-benzylamino)-methyl]-2-fluoro-biphenyl-4-yl}-2-oxo-oxazolidin-5-(S)-ylmethyl)-acetamide], `CC(=O)NC[C@H]1CN(c2ccc(-c3ccc(CNCc4ccc5ncccc5c4)cc3)c(F)c2)C(=O)O1` [Compound 4071, N-[3-(2-Fluoro-4′-{[(quinolin-6-ylmethyl)-amino]-methyl}-biphenyl-4-yl)-2-oxo-oxazolidin-5-(S)-ylmethyl]-acetamide] is 2-fold higher in MIC: 1 µg/mL (≈ 2.12 µM) for the first, 2 µg/mL (≈ 4.01 µM) for the second.

Going from `CC(=O)NC[C@H]1CN(c2ccc(-c3ccc(CNS(=O)(=O)c4ccc(N5CCOCC5)nc4)cc3)c(F)c2)C(=O)O1` [Compound 2044, N-(3-{2-Fluoro-4′-[(6-morpholin-4-yl-pyridine-3-sulfonylamino)-methyl]-biphenyl-4-yl}-2-oxo-oxazolidin-5-(S)-ylmethyl)-acetamide] to `CC(=O)NC[C@H]1CN(c2ccc(-c3ccc(CNS(=O)(=O)c4cccc5cccnc45)cc3)c(F)c2)C(=O)O1` [Compound 2051, N-(3-{2-Fluoro-4′-[(quinoline-8-sulfonylamino)-methyl]-biphenyl-4-yl}-2-oxo-oxazolidin-5-(S)-ylmethyl)-acetamide], the MIC falls from 128 µg/mL (≈ 219 µM) to 4 µg/mL (≈ 7.29 µM) (32-fold).

`CC(=O)NC[C@H]1CN(c2ccc(-c3ccc(CNCc4ccc(Cl)cc4Cl)cc3)c(F)c2)C(=O)O1` [Compound 4064, N-(3-{4′-[(2,4-Dichloro-benzylamino)-methyl]-2-fluoro-biphenyl-4-yl}-2-oxo-oxazolidin-5-(S)-ylmethyl)-acetamide] and `CCc1ccc(CNCc2ccc(-c3ccc(N4C[C@H](CNC(C)=O)OC4=O)cc3F)cc2)s1` [Compound 4162, N-[3-(4′-{[(5-Ethyl-thiophen-2-ylmethyl)-amino]-methyl}-2-fluoro-biphenyl-4-yl)-2-oxo-oxazolidin-5-(S)-ylmethyl]-acetamide] are the same in MIC: 2 µg/mL (≈ 3.87 µM) for the first, 2 µg/mL (≈ 4.15 µM) for the second.

`CC(=O)NC[C@H]1CN(c2ccc(-c3ccc(Cn4cnc5c(N(C)C)ncnc54)cc3)c(F)c2)C(=O)O1` [Compound 1105, N-{3-[4′-(6-Dimethylamino-purin-9-ylmethyl)-2-fluoro-biphenyl-4-yl]-2-oxo-oxazolidin-5-(S)-ylmethyl}-acetamide] and `CC(=O)NC[C@H]1CN(c2ccc(-c3ccc(Cn4cnc5c(NCCF)ncnc54)cc3)c(F)c2)C(=O)O1` [Compound 1102, N-(3-{2-Fluoro-4′-[6-(2-fluoro-ethylamino)-purin-9-ylmethyl]-biphenyl-4-yl}-2-oxo-oxazolidin-5-(S)-ylmethyl)-acetamide] are the same in MIC: 1 µg/mL (≈ 1.99 µM) for the first, 1 µg/mL (≈ 1.92 µM) for the second.

First: CC(=O)NC[C@H]1CN(c2ccc(-c3ccc(CNCCSc4nnc[nH]4)cc3)c(F)c2)C(=O)O1 [Compound 5005, N-[3-(2-Fluoro-4′-{[2-(4H-[1,2,4]triazol-3-ylsulfanyl)-ethylamino]-methyl}-biphenyl-4-yl)-2-oxo-oxazolidin-5-(S)-ylmethyl]-acetamide]
Second: CC(=O)NC[C@H]1CN(c2ccc(-c3ccc(CNCc4nnn(C)n4)cc3)c(F)c2)C(=O)O1 [Compound 4284, N-[3-(2-Fluoro-4′-{[(2-methyl-2H-tetrazol-5-ylmethyl)-amino]-methyl}-biphenyl-4-yl)-2-oxo-oxazolidin-5-(S)-ylmethyl]-acetamide]
The MIC of the first is 2-fold higher: 0.5 µg/mL (≈ 1.03 µM) for the first, 0.25 µg/mL (≈ 0.551 µM) for the second.

`CSc1nnnn1Cc1ccc(-c2ccc(N3C[C@H](CNC(C)=O)OC3=O)cc2F)cc1` [Compound 1079, N-{3-[2-Fluoro-4′-(5-methylsulfanyl-tetrazol-1-ylmethyl)-biphenyl-4-yl]-2-oxo-oxazolidin-5-(S)-ylmethyl}-acetamide] and `CNCc1cn(Cc2ccc(-c3ccc(N4C[C@H](CNC(C)=O)OC4=O)cc3F)cc2)nn1` [Compound 1012, N-{3-[2-Fluoro-4′-(4-methylaminomethyl-[1,2,3]triazol-1-ylmethyl)-biphenyl-4-yl]-2-oxo-oxazolidin-5-(S)-ylmethyl}-acetamide] are the same in MIC: 2 µg/mL (≈ 4.38 µM) for the first, 2 µg/mL (≈ 4.42 µM) for the second.

First: CC(=O)NC[C@H]1CN(c2ccc(-c3ccc(CNCCCN4CCCC4=O)cc3)c(F)c2)C(=O)O1 [Compound 4156, N-[3-(2-Fluoro-4′-{[3-(2-oxo-pyrrolidin-1-yl)-propylamino]-methyl}-biphenyl-4-yl)-2-oxo-oxazolidin-5-(S)-ylmethyl]-acetamide]
Second: CC(=O)NC[C@H]1CN(c2ccc(-c3ccc(CNCCc4ccc(S(N)(=O)=O)cc4)cc3)c(F)c2)C(=O)O1 [Compound 4094, N-[3-(2-Fluoro-4′-{[2-(4-sulfamoyl-phenyl)-ethylamino]-methyl}-biphenyl-4-yl)-2-oxo-oxazolidin-5-(S)-ylmethyl]-acetamide]
The MIC of the first is 8-fold higher: 16 µg/mL (≈ 33.2 µM) for the first, 2 µg/mL (≈ 3.7 µM) for the second.

Compared with `CC(=O)NC[C@H]1CN(c2ccc(-c3ccc([C@@H](N)Cn4ccnc4)cc3)c(F)c2)C(=O)O1` [Compound 1031, N-{3-[4′-(R)-(1-Amino-2-imidazol-1-yl-ethyl)-2-fluoro-biphenyl-4-yl]-2-oxo-oxazolidin-5-(S)-ylmethyl}-acetamide], `CC(=O)NC[C@H]1CN(c2ccc(-c3ccc(CSc4nncs4)cc3)c(F)c2)C(=O)O1` [Compound 2029, N-{3-[2-Fluoro-4′-([1,3,4]thiadiazol-2-ylsulfanylmethyl)-biphenyl-4-yl]-2-oxo-oxazolidin-5-(S)-ylmethyl}-acetamide] is 32-fold lower in MIC: 8 µg/mL (≈ 18.3 µM) for the first, 0.25 µg/mL (≈ 0.545 µM) for the second.

First: CC(=O)NC[C@H]1CN(c2ccc(-c3ccc(CNCc4cc(C)oc4C(F)(F)F)cc3)c(F)c2)C(=O)O1 [Compound 4105, N-[3-(2-Fluoro-4′-{[(5-methyl-2-trifluoromethyl-furan-3-ylmethyl)-amino]-methyl}-biphenyl-4-yl)-2-oxo-oxazolidin-5-(S)-ylmethyl]-acetamide]
Second: CC(=O)NC[C@H]1CN(c2ccc(-c3ccc(CNc4ccon4)cc3)c(F)c2)C(=O)O1 [Compound 2050, N-{3-[2-Fluoro-4′-(isoxazol-3-ylaminomethyl)-biphenyl-4-yl]-2-oxo-oxazolidin-5-(S)-ylmethyl}-acetamide]
The MIC of the first is 2-fold higher: 0.5 µg/mL (≈ 0.962 µM) for the first, 0.25 µg/mL (≈ 0.589 µM) for the second.

First: CC(=O)NC[C@H]1CN(c2ccc(-c3ccc(CNCc4ccoc4)cn3)c(F)c2)C(=O)O1 [Compound 4053, N-{3-[3-Fluoro-4-(5-{[(furan-3-ylmethyl)-amino]-methyl}-pyridin-2-yl)-phenyl]-2-oxo-oxazolidin-5-(S)-ylmethyl}-acetamide]
Second: CC(=O)NC[C@H]1CN(c2ccc(-c3ccc(CS(=O)(=O)c4cnn[nH]4)cc3)c(F)c2)C(=O)O1 [Compound 2025, N-{3-[2-Fluoro-4′-(3H-[1,2,3]triazole-4-sulfonylmethyl)-biphenyl-4-yl]-2-oxo-oxazolidin-5-(S)-ylmethyl}-acetamide]
The MIC of the first is 2-fold lower: 4 µg/mL (≈ 9.12 µM) for the first, 8 µg/mL (≈ 16.9 µM) for the second.

Compared with `CC(=O)NC[C@H]1CN(c2ccc(-c3ccc(Cn4cnc5c(NCC(F)(F)F)ncnc54)cc3)c(F)c2)C(=O)O1` [Compound 1104, N-(3-{2-Fluoro-4′-[6-(2,2,2-trifluoro-ethylamino)-purin-9-ylmethyl]-biphenyl-4-yl}-2-oxo-oxazolidin-5-(S)-ylmethyl)-acetamide], `CC(=O)NC[C@H]1CN(c2ccc(-c3ccc(CN(C)Cc4cnc[nH]4)cc3)c(F)c2)C(=O)O1` [Compound 4067, N-[3-(2-Fluoro-4′-{[(3H-imidazol-4-ylmethyl)-methyl-amino]-methyl}-biphenyl-4-yl)-2-oxo-oxazolidin-5-(S)-ylmethyl]-acetamide] is 4-fold higher in MIC: 1 µg/mL (≈ 1.79 µM) for the first, 4 µg/mL (≈ 8.86 µM) for the second.

Going from `O=C1O[C@@H](Cn2cncn2)CN1c1ccc(-c2ccc(CNCc3ccncc3)cc2)c(F)c1` [Compound 4230, 3-(2-Fluoro-4′-{[(pyridin-4-ylmethyl)-amino]-methyl}-biphenyl-4-yl)-5-(R)-[1,2,4]triazol-1-ylmethyl-oxazolidin-2-one] to `CC(=O)NC[C@H]1CN(c2ccc(-c3ccc(NC(=O)NCc4ccncc4)cc3)c(F)c2)C(=O)O1` [Compound 6004, N-{3-[2-Fluoro-4′-(3-pyridin-4-ylmethyl-ureido)-biphenyl-4-yl]-2-oxo-oxazolidin-5-(S)-ylmethyl}-acetamide], the MIC falls from 32 µg/mL (≈ 69.8 µM) to 1 µg/mL (≈ 2.09 µM) (32-fold).

Same assay, conditions: Staphylococcus aureus, read-out: MICs

`CC(=O)NC[C@H]1CN(c2ccc(-c3ccc(Cc4nc(=O)o[nH]4)cc3)c(F)c2)C(=O)O1` [Compound 1016, N-{3-[2-Fluoro-4′-(5-(S)-oxo-2,5-(S)-dihydro-[1,2,4]oxadiazol-3-ylmethyl)-biphenyl-4-yl]-2-oxo-oxazolidin-5-(S)-ylmethyl}-acetamide] was tested, and the MIC was 4 µg/mL (≈ 9.38 µM).
